Values of other authors, collected in patent US20210322447A1, “T[…]-DOSING DELIVERY OF PSYCHEDELICS DERIVATIVES” (PIKE THERAPEUTICS, INC., priority 2020, published 2021).

Key:
central nervous system = conditions: cited from Nelson and Foltz, Anal. Chem. 64, 1578-1585, 1992
[1] = test system: serotonin receptors in the brain; conditions: once ingested; typical duration

Compound | concentration sufficient to induce hallucination (central nervous system) | duration of mind-altering effects [1]
CCN(CC)C(=O)[C@@H]1C=C2c3cccc4[nH]cc(c34)C[C@H]2N(C)C1 [LSD, 9,10-didehydro-N,N-diethyl-6-methylergoline-80-carboxamide] | 20 to 80 µg | –
CN(C)CCc1c[nH]c2cccc(OP(=O)(O)O)c12 [psilocybin, [3-(2-dimethylaminoethyl)-1H-indol-4-yl] dihydrogen phosphate] | – | two to six
